Experimental findings from BindingDB's records for doi:10.1021/jm0110901 (Carlsberg Laboratory, 2002) are described below.

pKi: −log10 of the molar value.

The test addresses Cysteine protease B CPB2.8ΔCTE (Leishmania mexicana). As to the kind of experiment: Inhibition of Leishmania mexicana Cysteine protease B (CPB2.8deltaCTE) was obtained in a solution-phase assay.

As usually defined, the pKi is the Ki on a negative log10 scale, so that one unit is a factor of ten. High values mean a small Ki, low ones a large Ki.

`CC[C@H](C)[C@H](NC(=O)[C@H](Cc1ccccc1)NC[C@H](Cc1ccccc1)NC(=O)[C@@H](NC(=O)[C@@H]1CCCN1C(=O)[C@@H](N)CCCCN)C(C)C)C(=O)N[C@@H](CC1CCCCC1)C(=O)O` had a pKi of 4.89.

As for `CC[C@H](C)[C@H](NC[C@H](Cc1ccccc1)NC(=O)[C@H](Cc1cnc[nH]1)NC(=O)[C@H](CCC(N)=O)NC(=O)[C@@H](N)CC(=O)O)C(=O)N[C@H](C(=O)N[C@H](C(=O)N[C@@H](CCC(N)=O)C(=O)O)C(C)C)[C@@H](C)CC`, the pKi was 4.52.

`CC[C@H](C)[C@H](NC(=O)[C@H](CC(C)C)NC[C@H](Cc1ccccc1)NC(=O)CNC(=O)[C@H](CCCCN)NC(=O)[C@@H](N)CC(=O)O)C(=O)N[C@H](C(=O)N[C@@H](CCCCN)C(=O)O)C(C)C`: the pKi was 4.73. Molecule `CC[C@H](C)[C@H](N)C(=O)N[C@H](C(=O)NCC(=O)N[C@H](CN[C@@H](Cc1ccc(O)cc1)C(=O)N[C@H](C(=O)N[C@H](C(=O)N[C@@H](C)C(=O)O)C(C)C)[C@@H](C)CC)Cc1ccccc1)[C@@H](C)O` had a pKi of 4.27. `CC[C@H](C)[C@H](NC(=O)[C@H](C)NC(=O)[C@@H](N)CC1CCCCC1)C(=O)N[C@H](CN[C@@H](Cc1ccc(O)cc1)C(=O)N[C@@H](CCSC)C(=O)N[C@@H](Cc1ccc(O)cc1)C(=O)N[C@@H](Cc1ccc(O)cc1)C(=O)O)Cc1ccccc1` had a pKi of 7.00. The figure for `CC[C@H](C)[C@H](NC(=O)[C@H](CCSC)NC(=O)[C@H](CO)NC(=O)[C@H](CC1CCCCC1)NC[C@H](Cc1ccccc1)NC(=O)[C@H](CC1CCCCC1)NC(=O)[C@H](CO)NC(=O)[C@@H](N)CC(=O)O)C(=O)O` is 5.00; for `CC[C@H](C)[C@H](NC[C@H](Cc1ccccc1)NC(=O)[C@H](Cc1c[nH]cn1)NC(=O)[C@H](CCCCN)NC(=O)[C@@H](N)CC(=O)O)C(=O)N[C@H](C(=O)N[C@H](C(=O)N[C@@H](CCCCN)C(=O)O)C(C)C)[C@@H](C)CC` it is 4.70; for `CC[C@H](C)[C@H](N)C(=O)N[C@@H](CC(=O)O)C(=O)NCC(=O)N[C@@H](CCCCN)CN[C@@H](CC(C)C)C(=O)N[C@@H](Cc1ccc(O)cc1)C(=O)N[C@@H](C)C(=O)N1CCC[C@H]1C(=O)O` [1-{2-[2-[2-(6-Amino-2-{2-[2-(2-amino-3-methyl-pentanoylamino)-3-carboxy-propionylamino]-acetylamino}-hexylamino)-4-methyl-pentanoylamino]-3-(4-hydroxy-phenyl)-propionylamino]-propionyl}-pyrrolidine-2-carboxylic acid] it is 5.28.

`CC[C@H](C)[C@H](NC(=O)[C@H](C)NC[C@H](Cc1ccccc1)NC(=O)[C@H](CCCNC(=N)N)NC(=O)[C@H](Cc1c[nH]c2ccccc12)NC(=O)[C@@H](N)CCSC)C(=O)N[C@H](C(=O)N[C@H](C(=O)O)[C@@H](C)O)[C@@H](C)CC` [2-(2-{2-[2-(2-{2-[2-(2-Amino-4-methylsulfanyl-butyrylamino)-3-(1H-indol-3-yl)-propionylamino]-5-guanidino-pentanoylamino}-3-phenyl-propylamino)-propionylamino]-3-methyl-pentanoylamino}-3-methyl-pentanoylamino)-3-hydroxy-butyric acid]: the pKi is 5.19. `CC[C@H](C)[C@H](N)C(=O)N[C@H](C(=O)N[C@H](C(=O)N[C@@H](CCCCN)CN[C@@H](C)C(=O)N[C@H](C(=O)N[C@@H](CC1CCCCC1)C(=O)N[C@H](C(=O)O)[C@@H](C)O)[C@@H](C)CC)[C@@H](C)O)C(C)C` [2-(2-{2-[2-(6-Amino-2-{2-[2-(2-amino-3-methyl-pentanoylamino)-3-methyl-butyrylamino]-3-hydroxy-butyrylamino}-hexylamino)-propionylamino]-3-methyl-pentanoylamino}-3-cyclohexyl-propionylamino)-3-hydroxy-butyric acid] gave a negative-log Ki (pKi) of 4.00. Then `CC[C@H](C)[C@H](NC(=O)[C@H](CC(C)C)NC[C@H](CCCNC(=N)N)NC(=O)CNC(=O)[C@H](CC1CCCCC1)NC(=O)[C@@H](N)C(C)C)C(=O)N[C@@H](Cc1cnc[nH]1)C(=O)N[C@@H](CC(=O)O)C(=O)O` [2-[2-{2-[2-(2-{2-[2-(2-Amino-3-methyl-butyrylamino)-3-cyclohexyl-propionylamino]-acetylamino}-5-guanidino-pentylamino)-4-methyl-pentanoylamino]-3-methyl-pentanoylamino}-3-(3H-imidazol-4-yl)-propionylamino]-succinic acid], with 4.15; and `C[C@H](NC[C@H](Cc1ccccc1)NC(=O)[C@H](CCCCN)NC(=O)[C@H](CCCCN)NC(=O)[C@@H](N)CC(=O)O)C(=O)N[C@@H](CC1CCCCC1)C(=O)NCC(=O)N[C@@H](CCCCN)C(=O)O` [6-Amino-2-(2-{2-[2-(2-{6-amino-2-[6-amino-2-(2-amino-3-carboxy-propionylamino)-hexanoylamino]-hexanoylamino}-3-phenyl-propylamino)-propionylamino]-3-cyclohexyl-propionylamino}-acetylamino)-hexanoic acid], with 4.51; and `CC[C@H](C)[C@H](NC(=O)[C@H](CC(N)=O)NC(=O)[C@H](Cc1ccccc1)NC[C@H](CCCCN)NC(=O)[C@H](CC1CCCCC1)NC(=O)[C@H](CC1CCCCC1)NC(=O)[C@@H](N)CC1CCCCC1)C(=O)N[C@@H](CCCCN)C(=O)O` [6-Amino-2-(2-{2-[2-(6-amino-2-{2-[2-(2-amino-3-cyclohexyl-propionylamino)-3-cyclohexyl-propionylamino]-3-cyclohexyl-propionylamino}-hexylamino)-3-phenyl-propionylamino]-3-carbamoyl-propionylamino}-3-methyl-pentanoylamino)-hexanoic acid], with 5.20. For `C[C@H](NC[C@H](CCCCN)NC(=O)[C@H](Cc1ccccc1)NC(=O)[C@H](CCCCN)NC(=O)[C@@H](N)CC(=O)O)C(=O)N[C@@H](CC1CCCCC1)C(=O)NCC(=O)N[C@@H](CCCCN)C(=O)O` [6-Amino-2-(2-{2-[2-(6-amino-2-{2-[6-amino-2-(2-amino-3-carboxy-propionylamino)-hexanoylamino]-3-phenyl-propionylamino}-hexylamino)-propionylamino]-3-cyclohexyl-propionylamino}-acetylamino)-hexanoic acid], the pKi is 6.22. The figure for `NCCCC[C@H](NC(=O)[C@H](CC(N)=O)NC(=O)[C@H](Cc1ccccc1)NC(=O)[C@H](CO)NC[C@H](CCCN=C(N)N)NC(=O)[C@H](Cc1ccccc1)NC(=O)[C@H](CCCCN)NC(=O)[C@@H]1CCCN1)C(=O)O` [6-Amino-2-[2-(2-{2-[2-(2-{6-amino-2-[(pyrrolidine-2-carbonyl)-amino]-hexanoylamino}-3-phenyl-propionylamino)-5-guanidino-pentylamino]-3-hydroxy-propionylamino}-3-phenyl-propionylamino)-3-carbamoyl-propionylamino]-hexanoic acid] is 5.06; for `CC(C)C[C@H](NC[C@H](Cc1ccccc1)NC(=O)[C@H](Cc1cnc[nH]1)NC(=O)[C@H](CCCCN)NC(=O)[C@@H](N)CC(=O)O)C(=O)N[C@@H](CC(C)C)C(=O)N[C@H](C(=O)N[C@@H](CCCCN)C(=O)O)C(C)C` [6-Amino-2-{2-[2-(2-{2-[2-[6-amino-2-(2-amino-3-carboxy-propionylamino)-hexanoylamino]-3-(3H-imidazol-4-yl)-propionylamino]-3-phenyl-propylamino}-4-methyl-pentanoylamino)-4-methyl-pentanoylamino]-3-methyl-butyrylamino}-hexanoic acid] it is 6.00; for `CSCC[C@H](NC(=O)[C@H](Cc1ccc(O)cc1)NC[C@H](Cc1ccccc1)NC(=O)[C@H](CC(C)C)NC(=O)[C@H](C)NC(=O)[C@@H](N)CC1CCCCC1)C(=O)N[C@@H](Cc1ccc(O)cc1)C(=O)N[C@@H](Cc1ccc(O)cc1)C(=O)O` [ChaALF(CH2NH)YMYY] it is 5.96. Consider “H-AIWYWAAV-OH [2-(2-{2-[2-[2-[2-[2-(2-Amino-propionylamino)-3-methyl-pentanoylamino]-3-(1H-indol-3-yl)-propionylamino]-3-(4-hydroxy-phenyl)-propionylamino]-3-(1H-indol-3-yl)-propionylamino]-propionylamino}-propionylamino)-3-methyl-butyric acid]”, for which the pKi is 4.35.
